Experiments:
LNCaP cells = assay: Growth in steroid-reduced medium with DHT and/or bicalutamide; type: cell-based, human; conditions: 10^−9 M DHT
Procedure: Cell Growth Assays: To measure growth in complete media, cells (2×10^4) were seeded in triplicate in individual wells of 12-well tissue culture plates in RPMI-1640 with 10% FBS and cultured for the indicated number of days. Cells were trypsinized, stained with Trypan Blue (0.4%), and counted in a hemacytometer. […] Colonies were counted after 10 days of incubation. For studies assessing the effect of dihydrotestosterone (DHT) on cell growth, cells (2×10^4) were plated in 12-well plates in complete media. After a 24-hour attachment period, the medium was replaced with steroid-free medium [phenol red-free RPMI 1640 and 5% charcoal-stripped FBS (Sigma)] for 48 hours. The final concentration of testosterone in the steroid-reduced media was less than 5 pM. After 48 hours of steroid depletion, cells were re-fed with fresh steroid-reduced medium with or without the indicated concentrations of DHT and/or bicalutamide (10 μM), and total cell numbers were assessed 7 days later.

Androgen Receptor (AR) = Androgen Receptor (AR) (Homo sapiens, UniProt P10275, T878A)
Procedure: Luciferase Reporter Assays: Vector control or ebp1-transfected LNCaP (5×10^4) cells were plated in twelve-well plates in complete media. When cells reached 50-60% confluence, they were transfected with 0.5 μg of MMTV-luc using the Fugene-6 reagent (Roche). Cells were also transfected with the RL-TK vector as an internal control. […] Luciferase activity was determined as previously described using a Dual-Luciferase kit (Promega, Madison, Wis.). The activities of renilla luciferase were used to normalize any variations in transfection efficiency. The promoter activities of each plasmid construct were calculated as the firefly-renilla luciferase activity ratios. All transfection experiments were carried out in triplicate wells and repeated three times.

Sequence of Androgen Receptor (AR) (P10275 whole entry T878A): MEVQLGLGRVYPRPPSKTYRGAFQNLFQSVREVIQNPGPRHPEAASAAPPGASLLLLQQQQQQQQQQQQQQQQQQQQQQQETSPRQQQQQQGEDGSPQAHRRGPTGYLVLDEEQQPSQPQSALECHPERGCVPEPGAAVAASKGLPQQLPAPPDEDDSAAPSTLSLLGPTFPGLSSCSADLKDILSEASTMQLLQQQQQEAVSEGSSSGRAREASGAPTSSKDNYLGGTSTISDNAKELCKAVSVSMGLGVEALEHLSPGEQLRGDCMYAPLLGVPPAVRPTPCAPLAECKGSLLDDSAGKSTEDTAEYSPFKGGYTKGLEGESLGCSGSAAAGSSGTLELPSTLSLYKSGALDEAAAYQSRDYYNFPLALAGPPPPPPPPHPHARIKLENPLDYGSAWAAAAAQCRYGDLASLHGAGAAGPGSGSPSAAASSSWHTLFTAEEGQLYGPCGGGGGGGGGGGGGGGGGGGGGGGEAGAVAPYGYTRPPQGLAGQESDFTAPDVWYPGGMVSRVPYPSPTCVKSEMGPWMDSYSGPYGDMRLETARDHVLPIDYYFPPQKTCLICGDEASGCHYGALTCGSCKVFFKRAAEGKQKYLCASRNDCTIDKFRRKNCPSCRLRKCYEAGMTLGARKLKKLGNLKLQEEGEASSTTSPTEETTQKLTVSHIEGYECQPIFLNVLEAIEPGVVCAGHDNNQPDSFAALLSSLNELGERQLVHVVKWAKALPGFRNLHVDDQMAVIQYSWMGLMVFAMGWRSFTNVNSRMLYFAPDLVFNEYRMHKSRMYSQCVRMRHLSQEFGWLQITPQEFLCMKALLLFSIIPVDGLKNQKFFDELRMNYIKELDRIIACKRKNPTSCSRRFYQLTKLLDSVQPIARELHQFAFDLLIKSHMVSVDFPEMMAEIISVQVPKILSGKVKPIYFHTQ

Row | Compound | stimulation of growth as compared to no DHT (LNCaP cells; Ebp1 transfectants) [%] | stimulation of growth as compared to no DHT (LNCaP cells; LNCaP vector controls, maximal) [%] | activation of luciferase activity (MMTV-luc) (Androgen Receptor (AR); LNCaP vector controls, R1881 10^−8 M) [fold] | AR activation (MMTV-luc) (Androgen Receptor (AR); ebp1 transfectants)
1 | C[C@]12CCC(=O)C[C@@H]1CC[C@@H]1[C@@H]2CC[C@]2(C)[C@@H](O)CC[C@@H]12 [DHT, dihydrotestosterone] | 35 | 250 | – | –
2 | C[C@]1(O)CC[C@H]2[C@@H]3CCC4=CC(=O)CCC4=C3C=C[C@@]21C [R1881] | – | – | 20 | neither R1881 nor cyproterone acetate nor the combination thereof stimulated AR activation

— US7718626B2, “ErbB3 binding protein compositions and methods of use” (University of Maryland, Baltimore, priority 2005, dated 2010)
